The source of these data is BindingDB's records for patent US9890168 (Shanghai Haiyan Pharmaceutical Technology, 2018).

In this assay the target is Epidermal growth factor receptor (Homo sapiens, UniProt P00533). Briefly: Inhibition Assay.

pIC50: −log10 of the molar value.

In general, pIC50 refers to the negative decadic logarithm of the IC50, by convention in mol/L.

Epidermal growth factor receptor, sequence (P00533 whole entry): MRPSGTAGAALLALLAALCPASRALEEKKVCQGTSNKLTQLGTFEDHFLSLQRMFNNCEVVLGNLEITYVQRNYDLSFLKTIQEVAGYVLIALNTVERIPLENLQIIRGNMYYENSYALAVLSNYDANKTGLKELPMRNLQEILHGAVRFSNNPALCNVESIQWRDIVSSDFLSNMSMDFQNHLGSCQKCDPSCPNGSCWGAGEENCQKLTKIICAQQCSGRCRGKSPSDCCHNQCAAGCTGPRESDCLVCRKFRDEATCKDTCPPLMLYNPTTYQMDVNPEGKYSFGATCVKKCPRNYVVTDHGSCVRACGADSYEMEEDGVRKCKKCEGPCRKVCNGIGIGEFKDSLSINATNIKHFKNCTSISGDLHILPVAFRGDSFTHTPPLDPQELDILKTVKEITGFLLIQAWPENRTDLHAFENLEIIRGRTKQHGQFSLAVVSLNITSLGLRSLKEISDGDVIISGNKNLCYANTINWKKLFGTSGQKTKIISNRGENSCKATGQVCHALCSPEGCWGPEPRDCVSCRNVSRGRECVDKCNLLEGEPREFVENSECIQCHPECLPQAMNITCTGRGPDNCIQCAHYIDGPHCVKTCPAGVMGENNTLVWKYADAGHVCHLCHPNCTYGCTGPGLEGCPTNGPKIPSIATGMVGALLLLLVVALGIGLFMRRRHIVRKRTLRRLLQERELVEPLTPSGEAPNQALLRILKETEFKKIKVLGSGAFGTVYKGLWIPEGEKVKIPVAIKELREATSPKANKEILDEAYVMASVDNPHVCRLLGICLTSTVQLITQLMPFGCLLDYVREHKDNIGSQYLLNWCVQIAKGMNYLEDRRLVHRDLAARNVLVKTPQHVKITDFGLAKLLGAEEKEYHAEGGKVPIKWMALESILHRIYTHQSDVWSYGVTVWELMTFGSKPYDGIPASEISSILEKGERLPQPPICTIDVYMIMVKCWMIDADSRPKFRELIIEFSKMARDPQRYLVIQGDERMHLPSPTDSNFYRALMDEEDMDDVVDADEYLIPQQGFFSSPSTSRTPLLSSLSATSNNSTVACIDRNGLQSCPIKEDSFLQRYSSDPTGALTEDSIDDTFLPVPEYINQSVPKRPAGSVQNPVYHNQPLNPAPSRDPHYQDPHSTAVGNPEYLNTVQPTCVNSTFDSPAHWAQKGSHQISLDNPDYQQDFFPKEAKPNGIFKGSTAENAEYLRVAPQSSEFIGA
Protocol: The concentration of DMSO after addition of the compound prepared in the above examples of the present invention (i.e., the compound to be tested) was 2 vol %.The working concentrations of each component in 10 μL wild-type EGER kinase reaction system were: 10 μM ATP, 0.8 ng/μL wild-type EGFR kinase, 2 μM Tyr04 substrate (Invitrogen, PV3193). The concentration of DMSO after addition of the compound to be tested was 2 vol %.10 mM drug stock solution was dissolved at room temperature and diluted to a final concentration of 4-0.002 μM with 8 vol % DMSO solution. […] Then 2.5 μl of ATP was added to initiate the reaction. Wherein, ATP was replaced by the reaction buffer in C1 well, no drug was added to C2 well, and the phosphorylated substrate was added to C3 well according to the instructions. The mixture was allowed to react at 25° C. in a shaker in dark for 60 min, 5 μL of Development Reagent B (invitrogen, diluted with TR-FRET dilution buffer) was added and allowed to react at room temperature in the shaker for 60 minutes.

In turn, `C=CC(=O)Nc1cc(Nc2nc(-c3cnn(C)c3)c3cc[nH]c3n2)c(OC)cc1OCCN(C)C` [US9890168, Compound 10] gave a pIC50 of 6.24.
Then `C=CC(=O)Nc1cc(Nc2nc(-c3cnn(C)c3)c3c(C)c[nH]c3n2)c(OC)cc1N1CCC(N(C)C)CC1` [US9890168, Compound 14], with below 6.00.
